Data reported in patent publication US11124495B2, “Tetrahydroisoquinolines and terahydronaphthyridines for the treatment of hepatitis B virus infection” (Hoffmann-La Roche Inc., priority 2016, dated 2021).

The compounds below were run on HBV DNA (assay: HBV DNA assay (real-time qPCR of extracellular HBV DNA, HepG2.2.15 cells)). Details: Hepatitis B virus, 144 h, extracellular HBV DNA in supernatant, six days after treatment, read-out: IC50, anti HBV DNA production activity.
Format: cell-based
Method: (§1) HepG2.2.15 cells (Acs et al. Proc Natl Acad Sci USA, 84, (1987), 4641-4), a constitutively HBV-expressing cell line were cultured in DMEM+Glutamax-I medium (Invitrogen, Carlsbad, Calif., USA), supplemented with 10% fetal bovine serum (Invitrogen) and G418 (Invitrogen) at a final concentration of 200 mg/L and maintained in 5% CO2 at 37° C.
The assay employs real-time qPCR (TaqMan) to directly measure extracellular HBV DNA copy number in the cell supernatant. HepG2.2.15 cells were plated in 96-well microtiter plates before treatment with complete medium (DMEM, Glutamax, 10% FBS, 1% Penicillin/Streptomycin, 250 μg/mL Genetycin, final DMSO concentration is 1%). Only the interior wells were utilized to reduce “edge effects” observed during cell culture, the exterior wells were filled with complete medium to help minimize sample evaporation. […]

SMILES | IC50
COc1cc(F)c2c(c1)CN(c1cnc(-c3ncccn3)cn1)CC2 [Example 8, 5-Fluoro-7-methoxy-2-(5-pyrimidin-2-ylpyrazin-2-yl)-3,4-dihydro-1H-isoquinoline] | 0.292 µM

Each compound was assayed on HBsAg (assay: HBsAg assay (CLIA on supernatant of HepG2.2.15 cells)). Details: Hepatitis B virus, HepG2.2.15, read-out: IC50 in HBsAg assay, HepG2.2.15 cells; HBsAg secretion reduced by 50% compared to the no drug control.
Format: cell-based, HBV
Method: as §1
HepG2.2.15 cells were seeded in duplicate into white, 96-well plates at 1.5×10^4 cells/well. The cells were treated with a three-fold serial dilution series of the compounds in DMSO. The final DMSO concentration in all wells was 1% and DMSO was used as no drug control.
The HBsAg chemiluminescence immunoassay (CLIA) kit (Autobio Diagnostics Co., Zhengzhou, China, Catalog number: CL0310-2) was used to measure the levels of secreted HBV antigens semi-quantitatively. For the detection 50 μL/well culture supernatant was used and HBsAg was quantified using HBsAg chemiluminescence immunoassay (CLIA) kit (Autobio Diagnostics Co., Zhengzhou, China, Catalog number: CL0310-2), 50 μL of the supernatant was transferred to the CLIA assay plate and 50 μL of enzyme conjugate reagent was added into each well. The plates were sealed and gently agitated for 1 hour at room temperature. The supernatant-enzyme-mixture was discarded and wells were washed 6 times with 300 μL of PBS. The residual liquid was removed by plating the CLIA plate right side down on absorbent tissue paper. 25 μL of substrates A and B were added to each well. Luminance was measured using a luminometer (Mithras LB 940 Multimode Microplate Reader) after 10 minutes incubation. Dose-response curves were generated and the IC50 value was extrapolated by using the E-WorkBook Suite (ID Business Solutions Ltd., Guildford, UK). The IC50 was defined as the compound concentration at which HBsAg secretion was reduced by 50% compared to the no drug control.
The compounds according to formula I were tested for their capacity to inhibit HBsAg as described herein.

SMILES | IC50
c1cnc(-c2ncc(N3CCc4ccccc4C3)cn2)nc1 [Example 1, 2-(2-Pyrimidin-2-ylpyrimidin-5-yl)-3,4-dihydro-1H-isoquinoline] | 3.17 µM
COc1cc2c(cc1OC)CN(c1cnc(-c3ncccn3)nc1)CC2 [Example 3, 6,7-Dimethoxy-2-(2-pyrimidin-2-ylpyrimidin-5-yl)-3,4-dihydro-1H-isoquinoline] | 2.32 µM
COc1ccc2c(c1)CCN(c1cnc(-c3ncccn3)nc1)C2 [Example 4, 6-Methoxy-2-(2-pyrimidin-2-ylpyrimidin-5-yl)-3,4-dihydro-1H-isoquinoline] | 5.2 µM
COc1cc(F)c2c(c1)CN(c1cnc(-c3ncccn3)nc1)CC2 [Example 5, 5-Fluoro-7-methoxy-2-(2-pyrimidin-2-ylpyrimidin-5-yl)-3,4-dihydro-1H-isoquinoline] | 0.355 µM
COc1cc(F)cc2c1CCN(c1cnc(-c3ncccn3)nc1)C2 [Example 6, 7-Fluoro-5-methoxy-2-(2-pyrimidin-2-ylpyrimidin-5-yl)-3,4-dihydro-1H-isoquinoline] | 0.454 µM
COc1cc(F)c2c(c1)C(C)N(c1cnc(-c3ncccn3)nc1)CC2 (stereo not shown) [Example 7, 5-Fluoro-7-methoxy-1-methyl-2-(2-pyrimidin-2-ylpyrimidin-5-yl)-3,4-dihydro-1H-isoquinoline] | 0.315 µM
COc1cc(F)c2c(c1)CN(c1cnc(-c3ncccn3)cn1)CC2 [Example 8, 5-Fluoro-7-methoxy-2-(5-pyrimidin-2-ylpyrazin-2-yl)-3,4-dihydro-1H-isoquinoline] | 0.445 µM
Clc1ccc2c(c1)CCN(c1cnc(-c3ncccn3)nc1)C2 [Example 9, 6-Chloro-2-(2-pyrimidin-2-ylpyrimidin-5-yl)-3,4-dihydro-1H-isoquinoline] | 2.52 µM
COc1cc2c(cc1OC)CN(c1ccc(-c3ccccn3)nc1)CC2 [Example 10, 6,7-Dimethoxy-2-[6-(2-pyridyl)-3-pyridyl]-3,4-dihydro-1H-isoquinoline] | 3.12 µM
COc1ccc2c(n1)CN(c1cnc(-c3ncccn3)nc1)CC2 [Example 12, 2-Methoxy-7-(2-pyrimidin-2-ylpyrimidin-5-yl)-6,8-dihydro-5H-1,7-naphthyridine] | 5.77 µM
COc1cc2c(cn1)CCN(c1cnc(-c3ncccn3)nc1)C2 [Example 13, 7-Methoxy-2-(2-pyrimidin-2-ylpyrimidin-5-yl)-3,4-dihydro-1H-2,6-naphthyridine] | 3.7 µM
COc1ccc2c(c1)CN(c1cnc(-c3ncccn3)nc1)CC2 [Example 14, 7-Methoxy-2-(2-pyrimidin-2-ylpyrimidin-5-yl)-3,4-dihydro-1H-isoquinoline] | 0.99 µM
c1cnc(-c2ncc(N3CCc4ccc(C5CC5)cc4C3)cn2)nc1 [Example 15, 7-Cyclopropyl-2-(2-pyrimidin-2-ylpyrimidin-5-yl)-3,4-dihydro-1H-isoquinoline] | 1.69 µM
CN(C)c1ccc2c(c1)CN(c1cnc(-c3ncccn3)nc1)CC2 [Example 16, N,N-Dimethyl-2-(2-pyrimidin-2-ylpyrimidin-5-yl)-3,4-dihydro-1H-isoquinolin-7-amine] | 0.406 µM
Cc1ccc2c(c1)CN(c1cnc(-c3ncccn3)nc1)CC2 [Example 17, 7-Methyl-2-(2-pyrimidin-2-ylpyrimidin-5-yl)-3,4-dihydro-1H-isoquinoline] | 2.01 µM
CNc1ccc2c(c1)CN(c1cnc(-c3ncccn3)nc1)CC2 [Example 18, N-Methyl-2-(2-pyrimidin-2-ylpyrimidin-5-yl)-3,4-dihydro-1H-isoquinolin-7-amine] | 4.64 µM

SMILES | IC50
Fc1cc(OCC(F)F)cc2c1CCN(c1cnc(-c3ncccn3)nc1)C2 [Example 19, 7-(2,2-Difluoroethoxy)-5-fluoro-2-(2-pyrimidin-2-ylpyrimidin-5-yl)-3,4-dihydro-1H-isoquinoline] | 0.255 µM
N#Cc1ccc2c(c1)CN(c1cnc(-c3ncccn3)nc1)CC2 [Example 20, 2-(2-Pyrimidin-2-ylpyrimidin-5-yl)-3,4-dihydro-1H-isoquinoline-7-carbonitrile] | 8.64 µM
Fc1cc(OCC2CC2)cc2c1CCN(c1cnc(-c3ncccn3)nc1)C2 [Example 21, 7-(Cyclopropylmethoxy)-5-fluoro-2-(2-pyrimidin-2-ylpyrimidin-5-yl)-3,4-dihydro-1H-isoquinoline] | 0.244 µM
Clc1ccc2c(c1)CN(c1cnc(-c3ncccn3)nc1)CC2 [Example 22, 7-Chloro-2-(2-pyrimidin-2-ylpyrimidin-5-yl)-3,4-dihydro-1H-isoquinoline] | 2.04 µM
CN(C)c1ccc2c(c1)CCN(c1cnc(-c3ncccn3)nc1)C2 [Example 23, N,N-Dimethyl-2-(2-pyrimidin-2-ylpyrimidin-5-yl)-3,4-dihydro-1H-isoquinolin-6-amine] | 2.21 µM
c1cnc(-c2ncc(N3CCc4cc(C5CC5)ccc4C3)cn2)nc1 [Example 24, 6-Cyclopropyl-2-(2-pyrimidin-2-ylpyrimidin-5-yl)-3,4-dihydro-1H-isoquinoline] | 1.38 µM
N#Cc1cccc2c1CCN(c1cnc(-c3ncccn3)nc1)C2 [Example 25, 2-(2-Pyrimidin-2-ylpyrimidin-5-yl)-3,4-dihydro-1H-isoquinoline-5-carbonitrile] | 1.19 µM
COC1CN(c2ccc3c(c2)CN(c2cnc(-c4ncccn4)nc2)CC3)C1 [Example 26, 7-(3-Methoxyazetidin-1-yl)-2-(2-pyrimidin-2-ylpyrimidin-5-yl)-3,4-dihydro-1H-isoquinoline] | 1.41 µM
Fc1cccc2c1CCN(c1cnc(-c3ncccn3)nc1)C2 [Example 27, 5-Fluoro-2-(2-pyrimidin-2-ylpyrimidin-5-yl)-3,4-dihydro-1H-isoquinoline] | 3.03 µM
NC(=O)COc1cc(F)c2c(c1)CN(c1cnc(-c3ncccn3)nc1)CC2 [Example 28, 2-[[5-Fluoro-2-(2-pyrimidin-2-ylpyrimidin-5-yl)-3,4-dihydro-1H-isoquinolin-7-yl]oxy]acetamide] | 8.52 µM
c1cnc(-c2ncc(N3CCc4c(cccc4C4CC4)C3)cn2)nc1 [Example 29, 5-Cyclopropyl-2-(2-pyrimidin-2-ylpyrimidin-5-yl)-3,4-dihydro-1H-isoquinoline] | 6.89 µM
CN(C)c1cccc2c1CCN(c1cnc(-c3ncccn3)nc1)C2 [Example 30, N,N-Dimethyl-2-(2-pyrimidin-2-ylpyrimidin-5-yl)-3,4-dihydro-1H-isoquinolin-5-amine] | 43.3 µM
COc1cc(Cl)c2c(c1)CN(c1cnc(-c3ncccn3)nc1)CC2 [Example 31, 5-Chloro-7-methoxy-2-(2-pyrimidin-2-ylpyrimidin-5-yl)-3,4-dihydro-1H-isoquinoline] | 0.068 µM
COc1cc(Cl)cc2c1CCN(c1cnc(-c3ncccn3)nc1)C2 [Example 32, 7-Chloro-5-methoxy-2-(2-pyrimidin-2-ylpyrimidin-5-yl)-3,4-dihydro-1H-isoquinoline] | 0.251 µM
CCC1c2cc(OC)cc(F)c2CCN1c1cnc(-c2ncccn2)nc1 (stereo not shown) [Example 33, Ethyl-5-fluoro-7-methoxy-2-(2-pyrimidin-2-ylpyrimidin-5-yl)-3,4-dihydro-1H-isoquinoline] | 0.79 µM

Same assay, conditions: read-out: IC50 in HBsAg assay; HepG2.2.15 cells; HBsAg secretion reduced by 50% compared to the no drug control

SMILES | IC50
Fc1ccc2c(c1)CN(c1cnc(-c3ncccn3)nc1)CC2 [Example 2, 7-Fluoro-2-(2-pyrimidin-2-ylpyrimidin-5-yl)-3,4-dihydro-1H-isoquinoline] | 22.5 µM
Fc1ccc2c(c1)CN(c1cnc(-c3ncccn3)nc1)CC2 [Example 11, 7-Fluoro-2-(2-pyrimidin-2-ylpyrimidin-5-yl)-3,4-dihydro-1H-isoquinoline] | 3.89 µM
